According to the NIST ThermoML archive (doi:10.1021/je200787v):
Where “and” joins values, the source holds several entries; their conditions need not be identical. Identical values can stand only once.

How the values were obtained:
[1] = Liquid
[2] = xn = mol fraction of the nth substance listed; settings: Liquid; for viscosity: Falling or rolling sphere viscometry; for mass density: Vibrating tube method

CCCCCCCCCCCCCCCCCC [octadecane]
[1]
Settings	mass density
323.1 K	757 kg/m3 [middle of 4 runs]
323.3 K	756 kg/m3 and 757 kg/m3
372.8 K	734 kg/m3 [middle of 6 runs]
422.5 K	703 kg/m3 and 704 kg/m3
422.6 K	700 kg/m3 [middle of 6 runs]

CCCCCCCCCCCCCCCCCC [octadecane] + CC
[2]
Settings	mass density [kg/m3]	viscosity [mPa·s]
323.1 K, x2 = 0.27	732	1.59
323.1 K, x2 = 0.415	715	1.09
323.1 K, x2 = 0.789	606	0.31
323.1 K, x2 = 0.844	572	0.23
323.3 K, x2 = 0.546	691	0.81
323.3 K, x2 = 0.654	662	0.55
372.8 K, x2 = 0.127	719	0.87
372.8 K, x2 = 0.298	703	0.7
372.8 K, x2 = 0.372	692	0.62
372.8 K, x2 = 0.474	676	0.52
372.8 K, x2 = 0.536	664	0.46
372.8 K, x2 = 0.599	648	0.39
372.8 K, x2 = 0.666	628	0.32
372.8 K, x2 = 0.701	614	0.29
422.5 K, x2 = 0.547	624	0.29
422.5 K, x2 = 0.588	613	0.27
422.6 K, x2 = 0.096	688	0.55
422.6 K, x2 = 0.194	679	0.49
422.6 K, x2 = 0.296	667	0.43
422.6 K, x2 = 0.365	659	0.4
422.6 K, x2 = 0.427	648	0.37
422.6 K, x2 = 0.477	640	0.33
